Test results: patent US20180185327A1, “FORMULATION COMPRISING PARTICLES AND A LIPASE INHIBITOR” (PERORA GMBH, priority 2015, published 2018)
Like-named read-outs stand apart in the source and are kept apart here.

Key:
[1] = High fat diet feeding experiments in rats (cream chow with orlistat, with or without polymer or lipid granulate); type: in vivo, male wistar rats; conditions: Ex. 3.2: four rats, cream chow 50% fat with added orlistat 0.6 mg/g chow, seven days
Protocol: Animals (male rats) were kept in cages on standard animal bedding (two animals per cage or individual housing) and were provided with ad libitum access to food and water. Animal food was provided as pellets in a pellet rack or as a cream or as granulate powder each filled in a container attached to the inside of the cage.
Body weight was recorded at beginning and end of experiments. Food consumption was documented daily except for weekends. Experiments were performed according to German laws of animal protection.
Rodent chow was purchased from ssniff Spezialdiaten GmbH, Germany; poly(acrylic acid) (PAA, Carbopol® 971 P NF) was obtained from the Lubrizol Corporation, USA; and HPMC (AnyAddy®) was obtained from Harke Pharma, Germany. Orlistat (Hexal, Germany) was purchased in a local pharmacy. Hard fat/tripalmitin (Dynasan® 116), triglyceride (Witepsol® E85), glycerol monooleate (Imwitor®990), and Xanthan were obtained from NRC/Jungbunzlauer, Germany. Glycerol monolaurate (GML 90 food) was obtained from Mosselman, Belgium. Resistant dextrin (Nutriose® FB06) was obtained from Barentz, Germany or Barentz, Netherlands.

[2] = cited from earlier work
[3] = after an oral dose; cited from earlier work

For `CCCCCCCCCCC[C@@H](C[C@@H]1OC(=O)[C@H]1CCCCCC)OC(=O)[C@H](CC(C)C)NC=O` [orlistat], which “body weight lost (±SD)” value [1] is on record?
The value was 2.5±1.4%.

And the “mean daily food intake” value [1]?
The value was 23.6 g.

And the “dietary fat prevented from being absorbed” value ([2]; standard over-the-counter dose of 60 mg)?
The value was “about 25%”.

What about the “dietary fat prevented from being absorbed” value ([2]; standard prescription dose of 120 mg three times daily before meals) of the same compound?
The value was “approximately 30%”.

What about the amount absorbed systemically [3] of the same compound?
The amount absorbed systemically was “Only trace amounts”.
